# Data published in the Kinase Knowledgebase extract (Sharma et al. 2016).
# pIC50: −log10 of the molar value.
# Assays:
# Test in all cases: Enzyme Assay
# PIK3CD (Human) = PIK3CD (Human) (UniProt O00329)
# PIK3CG (human) = PIK3CG (human) (UniProt P48736)
# PIK3CB (Human) = PIK3CB (Human) (UniProt P42338)
# Chain of PIK3CB (Human) (P42338 whole entry, looked up): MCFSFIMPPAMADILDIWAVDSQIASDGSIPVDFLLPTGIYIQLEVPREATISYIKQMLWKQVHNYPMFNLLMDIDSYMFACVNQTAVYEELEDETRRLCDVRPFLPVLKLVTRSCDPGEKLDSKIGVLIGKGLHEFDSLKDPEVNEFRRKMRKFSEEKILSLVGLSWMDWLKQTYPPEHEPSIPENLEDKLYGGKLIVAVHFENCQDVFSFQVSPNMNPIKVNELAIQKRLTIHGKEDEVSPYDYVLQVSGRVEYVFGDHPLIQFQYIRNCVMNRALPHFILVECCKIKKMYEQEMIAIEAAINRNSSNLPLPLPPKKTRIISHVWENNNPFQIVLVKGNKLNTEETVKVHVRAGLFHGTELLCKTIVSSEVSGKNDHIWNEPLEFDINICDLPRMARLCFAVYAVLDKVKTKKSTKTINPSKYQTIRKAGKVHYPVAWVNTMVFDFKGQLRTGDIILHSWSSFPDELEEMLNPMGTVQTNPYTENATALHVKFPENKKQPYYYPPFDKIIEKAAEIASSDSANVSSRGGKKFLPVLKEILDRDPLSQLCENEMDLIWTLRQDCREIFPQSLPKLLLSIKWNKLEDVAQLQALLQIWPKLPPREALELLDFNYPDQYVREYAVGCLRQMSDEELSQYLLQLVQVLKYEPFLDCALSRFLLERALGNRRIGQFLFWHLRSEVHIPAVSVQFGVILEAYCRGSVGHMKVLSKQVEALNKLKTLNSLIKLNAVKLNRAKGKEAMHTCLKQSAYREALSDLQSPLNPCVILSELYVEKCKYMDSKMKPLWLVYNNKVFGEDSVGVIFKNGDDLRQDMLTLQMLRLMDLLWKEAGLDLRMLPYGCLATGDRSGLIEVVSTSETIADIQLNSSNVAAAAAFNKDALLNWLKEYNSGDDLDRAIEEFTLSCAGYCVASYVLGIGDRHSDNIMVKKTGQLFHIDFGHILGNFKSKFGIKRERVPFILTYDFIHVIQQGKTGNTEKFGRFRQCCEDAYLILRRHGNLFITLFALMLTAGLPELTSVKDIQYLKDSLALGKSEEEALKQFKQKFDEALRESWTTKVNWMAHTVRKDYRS
# Chain of PIK3CD (Human) (O00329 whole entry, looked up): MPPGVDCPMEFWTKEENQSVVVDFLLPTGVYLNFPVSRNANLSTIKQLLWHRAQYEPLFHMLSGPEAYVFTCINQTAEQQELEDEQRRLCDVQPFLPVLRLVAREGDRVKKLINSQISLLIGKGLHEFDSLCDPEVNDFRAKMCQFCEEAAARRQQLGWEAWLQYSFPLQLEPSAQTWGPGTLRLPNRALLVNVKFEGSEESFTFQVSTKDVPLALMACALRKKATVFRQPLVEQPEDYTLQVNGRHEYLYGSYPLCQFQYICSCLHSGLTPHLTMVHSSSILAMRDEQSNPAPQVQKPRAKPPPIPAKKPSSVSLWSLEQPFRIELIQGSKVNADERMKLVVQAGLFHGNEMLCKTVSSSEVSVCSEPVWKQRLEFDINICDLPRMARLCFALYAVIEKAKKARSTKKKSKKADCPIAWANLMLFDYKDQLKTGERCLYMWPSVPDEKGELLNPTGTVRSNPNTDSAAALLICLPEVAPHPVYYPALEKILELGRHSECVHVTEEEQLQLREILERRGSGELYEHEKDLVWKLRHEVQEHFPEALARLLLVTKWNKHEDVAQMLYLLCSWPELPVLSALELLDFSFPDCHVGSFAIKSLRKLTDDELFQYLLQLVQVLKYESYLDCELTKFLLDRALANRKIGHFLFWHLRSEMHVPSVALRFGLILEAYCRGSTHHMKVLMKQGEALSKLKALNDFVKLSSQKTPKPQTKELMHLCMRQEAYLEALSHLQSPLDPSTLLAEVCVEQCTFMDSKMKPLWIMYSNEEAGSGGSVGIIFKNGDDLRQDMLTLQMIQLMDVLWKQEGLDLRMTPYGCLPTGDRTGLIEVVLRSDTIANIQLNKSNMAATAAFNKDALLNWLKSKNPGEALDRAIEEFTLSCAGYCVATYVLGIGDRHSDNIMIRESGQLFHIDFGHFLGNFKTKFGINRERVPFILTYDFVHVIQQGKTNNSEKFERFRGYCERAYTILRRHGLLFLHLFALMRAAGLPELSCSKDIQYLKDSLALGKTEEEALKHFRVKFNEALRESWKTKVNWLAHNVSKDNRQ
# Chain of PIK3CG (human) (P48736 whole entry, looked up): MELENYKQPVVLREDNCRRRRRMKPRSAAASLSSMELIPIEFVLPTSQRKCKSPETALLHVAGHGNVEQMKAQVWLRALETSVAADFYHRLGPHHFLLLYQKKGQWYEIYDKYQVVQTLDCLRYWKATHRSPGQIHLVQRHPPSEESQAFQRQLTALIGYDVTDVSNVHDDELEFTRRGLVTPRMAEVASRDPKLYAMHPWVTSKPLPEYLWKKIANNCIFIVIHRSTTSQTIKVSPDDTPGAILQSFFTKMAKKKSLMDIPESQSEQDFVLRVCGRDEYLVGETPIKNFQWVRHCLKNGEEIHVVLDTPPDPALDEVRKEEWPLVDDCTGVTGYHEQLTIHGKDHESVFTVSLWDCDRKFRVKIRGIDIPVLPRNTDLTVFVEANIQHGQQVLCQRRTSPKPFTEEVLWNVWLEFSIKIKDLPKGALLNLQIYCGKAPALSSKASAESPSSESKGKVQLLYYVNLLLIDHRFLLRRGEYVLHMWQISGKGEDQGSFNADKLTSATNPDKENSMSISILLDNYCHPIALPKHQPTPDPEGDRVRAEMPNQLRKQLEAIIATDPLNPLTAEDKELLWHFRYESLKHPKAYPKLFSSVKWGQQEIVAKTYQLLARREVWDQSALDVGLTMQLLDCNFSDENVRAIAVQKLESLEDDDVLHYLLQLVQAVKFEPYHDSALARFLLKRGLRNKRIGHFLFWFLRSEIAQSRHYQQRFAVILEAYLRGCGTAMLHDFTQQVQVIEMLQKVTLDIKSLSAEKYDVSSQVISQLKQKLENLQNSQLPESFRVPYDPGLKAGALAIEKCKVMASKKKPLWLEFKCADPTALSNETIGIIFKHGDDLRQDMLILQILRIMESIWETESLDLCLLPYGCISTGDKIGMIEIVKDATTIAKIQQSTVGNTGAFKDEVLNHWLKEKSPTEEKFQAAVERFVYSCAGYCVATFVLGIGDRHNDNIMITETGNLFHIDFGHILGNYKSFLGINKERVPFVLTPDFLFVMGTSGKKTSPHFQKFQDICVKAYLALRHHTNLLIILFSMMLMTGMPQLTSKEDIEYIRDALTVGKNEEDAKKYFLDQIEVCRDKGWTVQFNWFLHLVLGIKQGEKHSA
SMILES,pIC50 (PIK3CD (Human)),pIC50 (PIK3CG (human)),pIC50 (PIK3CB (Human))
C[C@H](Nc1nc(N)nc(N)c1Cl)c1nc2c(Cl)cc(F)cc2c(=O)n1-c1cnc(N)cn1,6.30,< 5.00,6.24
C[C@H](Nc1ncnc(N)c1C#N)c1nc2c(F)ccc(Cl)c2c(=O)n1-c1cnc(N)cn1,–,< 5.00,–
C[C@H](Nc1nc(N)nc(N)c1Cl)c1nc2c(Cl)ccc(Cl)c2c(=O)n1-c1cnc(N)cn1,–,< 5.00,–
C[C@H](Nc1ncnc2[nH]nnc12)c1nc2c(F)cccc2c(=O)n1-c1cnc(N)cn1,–,< 5.00,< 5.00
Nc1cnc(-n2c([C@@H](Nc3ncnc(N)c3Cl)C3CC3)nc3c(Cl)ccc(Cl)c3c2=O)cn1,7.59,< 5.00,5.96
C[C@H](Nc1nc(N)nc(C(F)F)c1C#N)c1nc2c(Cl)cc(F)cc2c(=O)n1-c1cnc(N)cn1,6.47,< 5.00,6.70
Nc1cnc(-n2c([C@@H](Nc3ncnc(N)c3Cl)C3CC3)nc3cccc(Cl)c3c2=O)cn1,–,< 5.00,6.14
C[C@H](Nc1nc(N)nc(N)c1Cl)c1nc2c(F)cc(F)cc2c(=O)n1-c1cnc(N)cn1,6.11,< 5.00,6.28
Nc1cnc(-n2c([C@@H](Nc3nc(N)nc(N)c3Cl)C3CC3)nc3cccc(Cl)c3c2=O)cn1,–,< 5.00,–
C[C@H](Nc1ncnc(N)c1Cl)c1nc2cccc(Cl)c2c(=O)n1-c1cnc(N)cn1,7.27,< 5.00,6.44
C[C@H](Nc1nc(N)nc(N)c1Cl)c1nc2c(F)ccc(Cl)c2c(=O)n1-c1cnc(N)cn1,–,< 5.00,–
C[C@H](Nc1ncnc2occc12)c1nc2c(F)ccc(Cl)c2c(=O)n1-c1cnc(N)cn1,–,< 5.00,–
Nc1cnc(-n2c([C@@H](Nc3nc(N)nc(N)c3Cl)C3CC3)nc3c(Cl)ccc(Cl)c3c2=O)cn1,–,< 5.00,–
